# Experimental data published in US20230272016A1, “PEPTIDES FOR IMMUNOTHERAPY” (Second Genome, Inc., priority 2020, published 2023).
# Tests used:
# [1] = system: Human monocyte-derived dendritic cells (moDCs); assay: moDC stimulation with low dose LPS and peptide, flow cytometry; format: cell-based; settings: LPS 2 ng/mL with peptide 10 μM
# Procedure: Human monocyte-derived dendritic cells (moDCs) were stimulated with low dose lipopolysaccharide (LPS) (2 ng/mL) alone, LPS with peptides SG-3-00802 (10 μM) or SG-3-05021 (10 μM), and LPS (2 ng/mL) with IFNg (50 ng/mL) as a positive control. After stimulation of moDCs, flow cytometry was used to determine induction of the CSCR3 receptor.
# [2] = system: human purified monocyte-derived dendritic cells; assay: Chemokine release from LPS stimulated monocyte-derived dendritic cells; format: cell-based; settings: LPS at low concentrations, suboptimal activation
# Source text: LPS was used at low concentrations for a suboptimal activation of dendritic cells in the presence of SG-3-00802 peptide or SG-3-05021 peptide.
# RENCA tumors = assay: RENCA murine adenocarcinoma syngeneic tumor model; format: in vivo, BALB/c mice; settings: for survival time (days) / tumor volume: peptide 2.5 mg/kg daily peritumorally; for survival time (days): anti-PD-1 10 mg/kg i.p., compared to PBS or anti-PD-1 alone; for tumor volume: anti-PD-1 10 mg/kg intraperitoneal, compared to PBS treated control mice
# Procedure: To determine anti-tumor activity of SG-3-00802 in vivo, the RENCA murine adenocarcinoma model was used. It is a syngeneic, standardized experimental model of metastatic RCC. Briefly, BALB/c female mice were inoculated subcutaneously with RENCA cells. Established tumors were treated daily with 2.5 mg/kg SG-3-00802 peritumorally, alone or in combination with intraperitoneal administration of 10 mg/kg anti-PD-1 antibody. […] QD indicates administration of the peptide once a day. BID indicates administration of the peptide twice a day.
# Balb/c female mice were implanted with RENCA cells in the left flank. When tumors were established and reach ˜100 mm^3 or 200 mm^3 mice were allocated into dosing groups. Each dosing group had 10-12 animals. Peptides were dosed peritumoral at 2.5 mg/kg BID for 7 d and anti-PD-1 was dosed intraperitoneally at 10 mg/kg TIW for a total of 3 doses. Mice were monitored for tumor growth and survival. Tumor volumes were measured twice a week. A survival event (censoring) was reached when tumor volume reached 1000 mm^3 and additional survival events were defined as animals that had to be euthanized due to ulceration.
# Additional studies were performed to test survival and tumor volume responses to a re-challenge event. In one study, mice were allocated into dosing groups when tumors reached ˜100 mm^3. During the initial dosing study, time 0 was the first day of seven days of dosing. […] Re-implantation was completed on day 39 after dosing completion. Treated mice were tumor free for >20 days before being re-challenge. […] Tumor volume and survival was been monitored as previously described. In the re-challenge experiment, time 0 is day 10 after re-challenge dosing.
# In the initial dosing experiment, tumor volumes were smaller in both the SG-3-00802 alone treatment and SG-3-00802 with anti-PD-1 antibody combinatorial treatment 40 days after dosing started (FIGS. 32A-32B).
# In another re-challenge study, mice were instead allocated into dosing groups when tumors reached ˜200 mm^3. The same procedure as described above was used, except where indicated. […] Re-implantation was completed on day 37 after dosing completion, and time 0 is day 12 post re-challenge. […] In the initial dosing experiment, tumor volumes were smaller in both the SG-3-00802 alone treatment and SG-3-00802 with anti-PD-1 antibody combinatorial treatment 15 days after dosing started (FIGS. 35A-35B).
# To determine anti-tumor activity of SG-3-00802 in vivo, the RENCA murine adenocarcinoma model was used. Briefly, BALB/c female mice were inoculated subcutaneously with RENCA cells. Established tumors were treated daily with 2.5 mg/kg SG-3-00802 peritumorally, alone or in combination with intraperitoneal administration of 10 mg/kg anti-PD-1 antibody. […]
# SSTR1 = target: T1, SSTR1 (Homo sapiens, UniProt P30872); assay: PathHunter β-Arrestin GPCR assay (gpcrMAX); format: cell-based
# T1 construct: expressed in transfected cells
# Source text: The PathHunter® β-Arrestin Assay monitored activation of a panel of 168 G-protein coupled receptors (GPCRs) with […] activation of the GPCR in agonist and antagonist mode.
# where the test sample is the peptide, the vehicle control=DMSO (0% activity), and the control ligand=control compound (100% activity).
# Peptides SG-3-00802 and SG-3-05021 were identified as an agonist, an antagonist, a PAM (Positive Allosteric Modulator), or an inverse-agonist. Agonist, antagonist, PAM, and inverse-agonist were identified according to the guidelines in Table 18. The basal activity/noise is a % activity of −20% to 20% for both agonist and antagonist modes. A PAM (Positive Allosteric Modulator) binds to a receptor, at a different site than the agonist, to change the receptor's response to the agonist. An inverse-Agonist is a binding partner with agonistic shutting down of basal activity in the cell. An antagonist antagonizes the activity of a particular binding partner.
# [3] = system: immature monocyte-derived dendritic cells (moDCs) and allogeneic T cells; assay: moDC / allogeneic T cell co-culture cytokine secretion; format: cell-based, human; settings: after anti-CD40 pre-stimulation, peptide alone or in combination with anti PD1; 72 hours; >4 donor PBMCs
# Procedure: In another study, immature monocyte-derived dendritic cells (moDCs) were pre-stimulated with anti-CD40 agonist antibody or the mouse IgG1 isotype control antibody. Twenty-four hours later, T cells isolated from allogeneic donors were added to the moDCs with the peptide of interest, SG-3-00802 or SG-3-05021, alone or in combination with […] monoclonal antibody. The co-culture of cells was incubated for 72 hours, after which cell supernatants were harvested and analyzed for secretion of cytokines, IFN-g and TNF-α. Both SG-3-00802 and SG-3-05021 induced an increase in IFN-γ and TNF-α after stimulation with anti-CD40 either alone or in combination with anti PD1 (FIGS. 26A-26B and 27A-27B). Data shown for experiment conducted in >4 Donor PBMCs.
# T1 sequence (P30872 whole entry): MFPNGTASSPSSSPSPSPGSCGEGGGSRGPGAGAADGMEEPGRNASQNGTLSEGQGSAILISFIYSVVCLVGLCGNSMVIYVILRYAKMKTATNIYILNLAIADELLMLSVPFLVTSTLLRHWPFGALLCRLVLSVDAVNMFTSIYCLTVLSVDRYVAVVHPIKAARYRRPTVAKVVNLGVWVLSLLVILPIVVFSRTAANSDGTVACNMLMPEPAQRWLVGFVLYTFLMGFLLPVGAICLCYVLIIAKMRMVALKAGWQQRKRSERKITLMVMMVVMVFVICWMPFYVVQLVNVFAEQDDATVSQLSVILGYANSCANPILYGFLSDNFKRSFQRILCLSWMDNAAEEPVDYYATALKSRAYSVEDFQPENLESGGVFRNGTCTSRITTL
sequence,measurement,setting,value
"LGKTDWIEKYFKVKKEKIDKMQRFLQG [SG-3-05021, peptide from bacteroides.clarus.dsm.22519]",CXCR3 receptor internalization,[1],did not induce CXCR3 receptor internalization
same,DC-SIGN expression,[1],down-regulate DC-SIGN
same,CXCL10 chemokine release,[2],dose-dependent increase
same,survival time (days),RENCA tumors,survived a longer time
same,tumor volume,RENCA tumors,decrease in tumor volume
same,GPCR target assay Interpretation,SSTR1,Inverse-agonist and PAM
same,IFN-γ secretion,[3],increase
same,TNF-α secretion,[3],increase
"MKVRPSVKPMCEKCKIIRRKGRVMVICENPKHKQRQG [SG-3-00802, peptide from oscillibacter.sp t_155102]",CXCR3 receptor internalization,[1],did not induce CXCR3 receptor internalization
same,DC-SIGN expression,[1],down-regulate DC-SIGN
same,CXCL10 chemokine release,[2],dose-dependent increase
same,"volume of syngeneic RENCA tumors, dose dependence",RENCA tumors; QD or BID administration of the peptide,dose-dependent manner
same,# of animals with complete tumor regression out of total animals per group (primary study),"RENCA tumors; Table 16, ~100 mm^3 study",2/12
same,# of animals without tumor progression out of re-challenged animals per group (re-challenge study),"RENCA tumors; Table 16, ~100 mm^3 study",2/2
same,# of animals with complete tumor regression out of total animals per group (primary study),"RENCA tumors; Table 17, ~200 mm^3 study",0/10
same,"survival, initial dosing",RENCA tumors; dosing groups allocated at tumors ~100 mm^3,increased survival
same,"survival, initial dosing",RENCA tumors; dosing groups allocated at tumors ~200 mm^3,increased survival
same,survival time (days),RENCA tumors,survived a longer time
same,tumor volume,RENCA tumors,robust decrease
same,"tumor volumes, initial dosing experiment","RENCA tumors; ~100 mm^3 study, 40 days after dosing started",smaller
same,percent of mice surviving after re-challenge,"RENCA tumors; ~100 mm^3 study, re-implantation on day 39 after dosing completion, opposite flank",increased percent of mice surviving
same,tumor volumes after re-challenge,"RENCA tumors; ~100 mm^3 study, vs PBS-treated control mice",remained smaller than PBS-treated control mice
same,"tumor volumes, initial dosing experiment","RENCA tumors; ~200 mm^3 study, 15 days after dosing started",smaller
same,GPCR target assay Interpretation,SSTR1,Inverse-agonist
same,IFN-γ secretion,[3],increase
same,TNF-α secretion,[3],increase
